Source: patent publication US20240207236A1, “COMPOUND FOR PREVENTING OR TREATING DIABETES” (ONCOCROSS CO., LTD., priority 2021, published 2024)

Columns and labels:
Assay type in all cases: in vivo, mice (C57BL/6)
[1] = Body weight of mice in STZ-induced insulin-resistant diabetes model
Procedure: (§1) STZ (Sigma-aldrich, S0130, 40 mg/kg b.w., in 0.1 M citrate buffer pH 4.5) was intraperitoneally administered to 9-week-old male mice (C57BL/6) once/1 day for 5 days to perform a first disease induction. After 7 weeks of the first induction, a second induction was performed using the same method as the first induction. For 5 days of an STZ administration period for the first induction, 10% sucrose was administered as drinking water. In addition, after 14 days of the second administration, blood sugar was confirmed to confirm the induction rate, and the induced animals were separated into groups. Experimental substances (R)-4-{(R)-1-[7-(3,4,5-trimethoxy-phenyl)-[1,6] naphthyridine-5-yloxy]-ethyl}pyrrolidine-2-one (BI-1002494) and cromolyn (OC-101) were administered orally into the stomach at 10 mL/kg using an oral administration syringe (sonde) before 16:00 daily for 12 weeks at a frequency of 7 days/week at doses shown in Table 1 below, respectively, and dexamethasone was orally administered as a positive control substance.

[2] = tested on: animal model of insulin-resistant diabetes; test: Blood biochemistry, automated analyzer, at end of observation; details: for ALT, Mean / T-CHO, Mean / AST, Mean: 12 weeks, blood
Procedure: as §1
(§2) After the observation period for mice of each group in Example 1 was terminated, all surviving animals were fasted in the same manner as when measuring blood sugar, and then anesthetized by inhaling isoflurane, and blood was collected from the abdominal vena cava through laparotomy. After the blood collection was completed, the veins and arteries were cut under anesthesia and exsanguinated. The collected blood was left at room temperature for 30 minutes or more and then centrifuged at 3,000 rpm for 20 minutes. Thereafter, glucose, blood urea nitrogen (BUN), and creatinine were analyzed using an automated blood biochemistry analyzer (Hitachi 3100, Hitachi Co. Ltd., Japan). Indoxyl sulfate (a substance that was mainly produced in the intestines to cause kidney damage, and a substance that caused end-stage renal failure by advancing kidney function damage in patients with renal failure during hemodialysis) was analyzed using LC MS/MS. In addition, blood insulin was analyzed according to a method represented by a commercial Mouse Insulin ELISA KIT (#AKRIN-011T, Sibayagi Co. Ltd., Japan).

[3] = tested on: animal model of insulin-resistant diabetes; test: Blood indoxyl sulfate by LC MS/MS; details: 12 weeks
Procedure: as §1, §2

[4] = Feed intake of mice in STZ-induced insulin-resistant diabetes model; design: feed intake: unit not given here
Procedure: as §1

COc1cc(-c2cc3ncccc3c(O[C@H](C)[C@H]3CNC(=O)C3)n2)cc(OC)c1OC [BI-1002494, (R)-4-{(R)-1-[7-(3,4,5-trimethoxy-phenyl)-[1,6]naphthyridine-5-yloxy]-ethyl}pyrrolidine-2-one]
body weight, Mean ([1]; 12.5 mg/kg/day oral, week 0): 24 g
body weight, Mean ([1]; 12.5 mg/kg/day oral, week 1): 23.7 g
body weight, Mean ([1]; 12.5 mg/kg/day oral, week 2): 23 g
body weight, Mean ([1]; 12.5 mg/kg/day oral, week 3): 24.1 g
body weight, Mean ([1]; 12.5 mg/kg/day oral, week 4): 24.3 g
body weight compared to the disease control group ([1]; 12.5 mg/kg, after week 5 of administration): statistically significantly increased
body weight, Mean ([1]; 25 mg/kg/day oral, week 0): 23.6 g
body weight, Mean ([1]; 25 mg/kg/day oral, week 1): 23.5 g
body weight, Mean ([1]; 25 mg/kg/day oral, week 2): 23.7 g
body weight, Mean ([1]; 25 mg/kg/day oral, week 3): 23.9 g
body weight, Mean ([1]; 25 mg/kg/day oral, week 4): 23.9 g
body weight, Mean ([1]; 25 mg/kg/day oral, week 5): 24 g
body weight, Mean ([1]; 25 mg/kg/day oral, week 6): 23.9 g
body weight, Mean ([1]; 25 mg/kg/day oral, week 7): 24 g
body weight compared to the disease control group ([1]; 25 mg/kg, after week 8): statistically significantly increased
body weight, Mean ([1]; 50 mg/kg/day oral, week 0): 23.9 g
body weight, Mean ([1]; 50 mg/kg/day oral, week 2): 23.8 g
body weight, Mean ([1]; 50 mg/kg/day oral, week 3): 23.8 g
body weight, Mean ([1]; 50 mg/kg/day oral, week 4): 23.8 g
body weight, Mean ([1]; 50 mg/kg/day oral, week 5): 23.6 g
body weight, Mean ([1]; 50 mg/kg/day oral, week 6): 23.8 g
body weight, Mean ([1]; 50 mg/kg/day oral, week 7): 24 g
body weight compared to the disease control group ([1]; 50 mg/kg, after week 8): statistically significantly increased
ALT, Mean ([2]; 12.5 mg/kg/day oral): 45.7 L⁻¹
T-CHO, Mean ([2]; 12.5 mg/kg/day oral): 151.6 dL⁻¹
ALT, Mean ([2]; 25 mg/kg/day oral): 30.9 L⁻¹
AST, Mean ([2]; 25 mg/kg/day oral): 76.8 L⁻¹
T-CHO, Mean ([2]; 25 mg/kg/day oral): 125.0 dL⁻¹
ALT, Mean ([2]; 50 mg/kg/day oral): 45.8 L⁻¹
AST, Mean ([2]; 50 mg/kg/day oral): 83.4 L⁻¹
T-CHO, Mean ([2]; 50 mg/kg/day oral): 138.7 dL⁻¹
dose dependence of GLU reduction ([2]; 12.5, 25, 50 mg/kg): clear dose dependence
blood glucose, summary ([2]; after induction of diabetic disease, 12.5-50 mg/kg): decreased in a dose-dependent manner
GLU, statistical comparison ([2]; all administered groups (12.5, 25, 50 mg/kg)): statistically significantly reduced
Indoxyl sulfate, Mean ([3]; 12.5 mg/kg/day oral): 2.2 µg/mL
Indoxyl sulfate, Mean ([3]; 25 mg/kg/day oral): 2.2 µg/mL
Indoxyl sulfate, Mean ([3]; 50 mg/kg/day oral): 1.9 µg/mL
feed intake compared to the disease control group ([4]; 12.5 mg/kg, after week 4 of administration): statistically significantly decreased
feed intake ([4]; 25 mg/kg/day oral, week 1): 5.60
feed intake ([4]; 25 mg/kg/day oral, week 2): 5.58
feed intake ([4]; 25 mg/kg/day oral, week 3): 5.26
feed intake ([4]; 25 mg/kg/day oral, week 4): 4.99
feed intake ([4]; 25 mg/kg/day oral, week 5): 5.15
feed intake ([4]; 25 mg/kg/day oral, week 7): 5.04
feed intake ([4]; 25 mg/kg/day oral, week 8): 4.95
feed intake ([4]; 25 mg/kg/day oral, week 9): 4.62
feed intake ([4]; 25 mg/kg/day oral, week 10): 4.63
feed intake compared to the disease control group ([4]; 25 mg/kg, after week 6 of administration): statistically significantly decreased
feed intake ([4]; 50 mg/kg/day oral, week 1): 5.74
feed intake ([4]; 50 mg/kg/day oral, week 4): 5.14
feed intake ([4]; 50 mg/kg/day oral, week 7): 5.11
feed intake ([4]; 50 mg/kg/day oral, week 9): 4.30
feed intake ([4]; 50 mg/kg/day oral, week 10): 4.14
feed intake compared to the disease control group ([4]; 50 mg/kg, after week 8 of administration): statistically significantly decreased
